Test results reported in ChEMBL document CHEMBL1201862, “PubChem BioAssay data set” (2004).
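Each compound was tested at five concentrations against cells in 96-well plates for 48 hours. The concentration for 50% growth inhibition is given as GI50.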 Calls of active or inactive are those of the source. No stated cut-off is given here; in the data, active = GI50 up to about 1.1 µM and inactive = higher.

Columns and labels:
Test in all cases: NCI-60 cell line screen, 48 h
[1] = system: 786-0
[2] = system: A498
[3] = system: A549
[4] = system: ACHN
[5] = system: BT-549
[6] = system: CAKI-1
[7] = system: CCRF-CEM
[8] = system: COLO 205
[9] = system: DU-145
[10] = system: EKVX
[11] = system: HCC 2998
[12] = system: HCT-116
[13] = system: HCT-15
[14] = system: HL-60
[15] = system: HOP-62
[16] = system: HOP-92
[17] = system: HT-29
[18] = system: Hs-578T
[19] = system: IGROV-1
[20] = system: KM12
[21] = system: LOX IMVI
[22] = system: M14
[23] = system: MCF7
[24] = system: MDA-MB-231
[25] = system: MDA-MB-435
[26] = system: MDA-N
[27] = system: MOLT-4
[28] = system: Malme-3M
[29] = system: NCI-H226
[30] = system: NCI-H23
[31] = system: NCI-H522
[32] = system: NCI/ADR-RES
[33] = system: OVCAR-3
[34] = system: OVCAR-4
[35] = system: OVCAR-5
[36] = system: OVCAR-8
[37] = system: PC-3
[38] = system: RPMI-8226
[39] = system: RXF 393
[40] = system: SF-268
[41] = system: SF-295
[42] = system: SF-539
[43] = system: SK-MEL-28
[44] = system: SK-MEL-2
[45] = system: SK-MEL-5
[46] = system: SK-OV-3
[47] = system: SN12C
[48] = system: SNB-19
[49] = system: SNB-75
[50] = system: SR
[51] = system: SW-620
[52] = system: T47D
[53] = system: TK-10
[54] = system: U-251
[55] = system: UACC-257
[56] = system: UACC-62
[57] = system: UO-31
[58] = system: K562
[59] = system: NCI-H460

## COc1c2c(cc3c1OCO3)C13C=CC(OC)CC1N(CC3)C2.[O-][Cl+3]([O-])([O-])O (centres undefined)
[1]
  GI50: > 100 µM (inactive)
[2]
  GI50: > 100 µM (inactive)
[3]
  GI50: > 100 µM (inactive)
[4]
  GI50: > 100 µM (inactive)
[5]
  GI50: > 100 µM (inactive)
[6]
  GI50: > 100 µM (inactive)
[7]
  GI50: > 100 µM (inactive)
[8]
  GI50: 35.6 µM (inactive)
[9]
  GI50: > 100 µM (inactive)
[10]
  GI50: > 100 µM (inactive)
[11]
  GI50: 90.8 µM (inactive)
[12]
  GI50: > 100 µM (inactive)
[13]
  GI50: 28.4 µM
[14]
  GI50: 39.4 µM (inactive)
[15]
  GI50: > 100 µM (inactive)
[16]
  GI50: > 100 µM (inactive)
[17]
  GI50: 71 µM (inactive)
[18]
  GI50: > 100 µM (inactive)
[19]
  GI50: > 100 µM (inactive)
[20]
  GI50: 51.1 µM (inactive)
[21]
  GI50: > 100 µM (inactive)
[22]
  GI50: > 100 µM (inactive)
[23]
  GI50: > 100 µM (inactive)
[24]
  GI50: > 100 µM (inactive)
[25]
  GI50: 34.3 µM (inactive)
[26]
  GI50: 37.3 µM (inactive)
[27]
  GI50: 36.4 µM (inactive)
[28]
  GI50: > 100 µM (inactive)
[29]
  GI50: > 100 µM (inactive)
[30]
  GI50: > 100 µM (inactive)
[31]
  GI50: > 100 µM (inactive)
[32]
  GI50: > 100 µM (inactive)
[33]
  GI50: > 100 µM (inactive)
[34]
  GI50: 49.3 µM (inactive)
[35]
  GI50: > 100 µM (inactive)
[36]
  GI50: > 100 µM (inactive)
[37]
  GI50: > 100 µM (inactive)
[38]
  GI50: > 100 µM (inactive)
[39]
  GI50: > 100 µM (inactive)
[40]
  GI50: > 100 µM (inactive)
[41]
  GI50: > 100 µM (inactive)
[42]
  GI50: > 100 µM (inactive)
[43]
  GI50: > 100 µM (inactive)
[44]
  GI50: > 100 µM (inactive)
[45]
  GI50: 29 µM (inactive)
[46]
  GI50: > 100 µM (inactive)
[47]
  GI50: > 100 µM (inactive)
[48]
  GI50: > 100 µM (inactive)
[49]
  GI50: > 100 µM (inactive)
[50]
  GI50: 4.9 µM (inactive)
[51]
  GI50: > 100 µM (inactive)
[52]
  GI50: > 100 µM (inactive)
[53]
  GI50: > 100 µM (inactive)
[54]
  GI50: > 100 µM (inactive)
[55]
  GI50: > 100 µM (inactive)
[56]
  GI50: > 100 µM (inactive)
[57]
  GI50: > 100 µM (inactive)

## CCOC(=O)NC(Nc1c(F)c(F)c(F)c(F)c1F)(C(F)(F)F)C(F)(F)F
[1]
  GI50: > 100 µM (inactive)
[2]
  GI50: > 100 µM (inactive)
[3]
  GI50: > 100 µM (inactive)
[4]
  GI50: > 100 µM (inactive)
[5]
  GI50: > 100 µM (inactive)
[6]
  GI50: > 100 µM (inactive)
[7]
  GI50: > 100 µM (inactive)
[8]
  GI50: > 100 µM (inactive)
[9]
  GI50: > 100 µM (inactive)
[10]
  GI50: > 100 µM (inactive)
[11]
  GI50: > 100 µM (inactive)
[12]
  GI50: > 100 µM (inactive)
[13]
  GI50: > 100 µM
[14]
  GI50: > 100 µM (inactive)
[15]
  GI50: > 100 µM (inactive)
[16]
  GI50: > 100 µM (inactive)
[18]
  GI50: > 100 µM (inactive)
[19]
  GI50: > 100 µM (inactive)
[58]
  GI50: > 100 µM (inactive)
[20]
  GI50: > 100 µM (inactive)
[21]
  GI50: > 100 µM (inactive)
[22]
  GI50: > 100 µM (inactive)
[23]
  GI50: > 100 µM (inactive)
[24]
  GI50: > 100 µM (inactive)
[25]
  GI50: > 100 µM (inactive)
[26]
  GI50: > 100 µM (inactive)
[27]
  GI50: > 100 µM (inactive)
[28]
  GI50: > 100 µM (inactive)
[29]
  GI50: > 100 µM (inactive)
[30]
  GI50: > 100 µM (inactive)
[59]
  GI50: > 100 µM (inactive)
[31]
  GI50: > 100 µM (inactive)
[32]
  GI50: > 100 µM (inactive)
[33]
  GI50: > 100 µM (inactive)
[35]
  GI50: > 100 µM (inactive)
[36]
  GI50: > 100 µM (inactive)
[37]
  GI50: > 100 µM (inactive)
[38]
  GI50: > 100 µM (inactive)
[39]
  GI50: > 100 µM (inactive)
[40]
  GI50: > 100 µM (inactive)
[41]
  GI50: > 100 µM (inactive)
[42]
  GI50: > 100 µM (inactive)
[43]
  GI50: > 100 µM (inactive)
[44]
  GI50: > 100 µM (inactive)
[45]
  GI50: > 100 µM (inactive)
[46]
  GI50: > 100 µM (inactive)
[47]
  GI50: > 100 µM (inactive)
[48]
  GI50: > 100 µM (inactive)
[49]
  GI50: > 100 µM (inactive)
[50]
  GI50: > 100 µM (inactive)
[51]
  GI50: > 100 µM (inactive)
[52]
  GI50: > 100 µM (inactive)
[53]
  GI50: > 100 µM (inactive)
[54]
  GI50: > 100 µM (inactive)
[55]
  GI50: > 100 µM (inactive)
[56]
  GI50: > 100 µM (inactive)
[57]
  GI50: > 100 µM (inactive)
